The values that follow come from US10294202B2, “Pyrrolidinones as herbicides” (FMC Corporation, priority 2013, dated 2019).

The structures appear in SMILES notation.

Common to all, as to test: Test C pre-/postemergence herbicide test
One assay deals with nightshade. It is filed as in vivo, Solanum ptycanthum. The settings on record: Preemergence. A digest of the protocol: (§1)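 Compound solutions contained surfactant in a non-phytotoxic solvent. These were sprayed onto pots of loam/sand sown with seeds, and onto young plants (2 to 18 cm, 1- to 4-leaf) in sphagnum peat–vermiculite mix. Visual injury scores (0 none, 100 complete control) were recorded after 13 to 15 days.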

The next assay deals with bromegrass, downy. It is filed as in vivo, Bromus tectorum. The text has this:
Seeds of plant species selected from blackgrass (Alopecurus myosuroides), ryegrass, Italian (Italian ryegrass, Lolium multiflorum), wheat (winter wheat, Triticum aestivum), galium (catchweed bedstraw, Galium aparine), corn (Zea mays), crabgrass, large (large crabgrass, Digitaria sanguinalis), foxtail, giant (giant foxtail, Setaria faberii), johnsongrass (Sorghum halepense), lambsquarters (Chenopodium album), morningglory (Ipomoea coccinea), nutsedge, yellow (yellow nutsedge, Cyperus esculentus), pigweed (Amaranthus retroflexus), ragweed (common ragweed, Ambrosia elatior), soybean (Glycine max), barnyardgrass (Echinochloa crus-galli), oilseed rape (Brassica napus), waterhemp (common waterhemp, Amaranthus rudis), kochia (Kochia scoparia), oat, wild (wild oat, Avena fatua), surinam grass (Brachiaria decumbens), foxtail, green (green foxtail, Setaria viridis), goosegrass (Eleusine indica), bromegrass, downy (downy bromegrass, Bromus tectorum), nightshade (eastern black nightshade, Solanum ptycanthum), cocklebur (common cocklebur, Xanthium strumarium), cupgrass, woolly (woolly cupgrass, Eriochloa villosa), bermudagrass (Cynodon dactylon), sunflower, (common oilseed sunflower, Helianthus annuus), Russian thistle (Salsola kali) and velvetleaf (Abutilon theophrasti) were planted into a blend of loam soil and sand and treated preemergence with test chemicals formulated in a non-phytotoxic solvent mixture which included a surfactant. At the same time, plants selected from these crop and weed species and also barley (winter barley, Hordeum vulgare), […]), chickweed (common chickweed, Stellaria media), deadnettle (henbit deadnettle, Lamium amplexicaule), and canarygrass (littleseed canarygrass, Phalaris minor) were planted in pots containing Redi-Earth® planting medium (Scotts Company, 14111 Scottslawn Road, Marysville, Ohio 43041) comprising spaghnum peat moss, vermiculite, wetting agent and starter nutrients and treated with postemergence applications of test chemicals formulated in the same manner. Plants ranged in height from 2 to 18 cm (1- to 4-leaf stage) for postemergence treatments. Treated plants and controls were maintained in a greenhouse for 13 to 15 days, after which time all species were compared to controls and visually evaluated. Plant response ratings, summarized in Table C, are based on a scale of 0 to 100 where 0 is no effect and 100 is complete control. A dash (-) response means no test result.

The subject of a further assay is cupgrass, woolly. It is filed as in vivo, Eriochloa villosa. The procedure, abridged: as §1
[1] abbreviates: 125 g ai/ha, scale 0 to 100 (0 no effect, 100 complete control).
Setting [2] is: Postemergence, 16 g ai/ha, scale 0 to 100 (0 no effect, 100 complete control).
The mark [3] stands for this setting: Postemergence, 31 g ai/ha, scale 0 (no effect) to 100 (complete control).
Setting [4] is: Postemergence, 62 g ai/ha, scale 0 to 100 (0 no effect, 100 complete control).
Setting [5] is: Postemergence, 125 g ai/ha, scale 0 to 100 (0 no effect, 100 complete control).
The mark [6] stands for this setting: Preemergence, 62 g ai/ha, scale 0 to 100.
The mark [7] stands for this setting: Preemergence, 125 g ai/ha, scale 0 to 100 (0 no effect, 100 complete control).
[8] abbreviates: Preemergence, 16 g ai/ha, scale 0 to 100.
Setting [9] is: Preemergence, 31 g ai/ha, scale 0 to 100 (0 no effect, 100 complete control).
Setting [10] is: Preemergence, 31 g ai/ha, scale 0 to 100, 0 is no effect and 100 is complete control.

In the case of `O=C1NCC(c2cc(F)c(F)c(F)c2)C1C(=O)Nc1cccc(F)c1F` (stereo not drawn) [Compound 48], the “Plant response rating, Nightshade” value in the assay on nightshade (62 g ai/ha, scale 0 to 100) is 0; in the assay on nightshade (setting [1]) it was 0; with nightshade (16 g ai/ha, scale 0 to 100) it was 0. The “Plant response rating, Bromegrass, Downy” value with bromegrass, downy (setting [2]) is listed as 0; in the assay on bromegrass, downy (setting [3]), 0; with bromegrass, downy (setting [4]) it was 0; in the assay with bromegrass, downy (setting [5]) it was 0; with bromegrass, downy (setting [6]), 0; in the assay with bromegrass, downy (setting [7]) it was 0. The “Plant response rating, Bromegrass, Downy” value in the assay with bromegrass, downy (setting [8]) is recorded as 0. For the same compound, in the assay on bromegrass, downy (setting [9]), the “Bromegrass, Downy plant response rating” value stood at 0. In addition, the “Plant response rating, Cupgrass, Woolly” value with cupgrass, woolly (setting [2]) is reported as 0; in the assay on cupgrass, woolly (setting [3]), 0; with cupgrass, woolly (setting [4]), 5; in the assay on cupgrass, woolly (setting [5]), 5; in the assay on cupgrass, woolly (setting [6]), 70; in the assay with cupgrass, woolly (setting [7]) it was 85. Moreover, the “Plant response rating, Cupgrass, Woolly” value in the assay on cupgrass, woolly (setting [8]) stood at 25. Besides, in the assay with cupgrass, woolly (setting [9]), the “Cupgrass, Woolly plant response rating” value is 70.
For the compound `O=C1NCC(c2ccc(F)c(Cl)c2)C1C(=O)Nc1ccccc1F` (stereo not drawn) [Compound 60], the “Plant response rating, Nightshade” value in the assay with nightshade (62 g ai/ha, scale 0 to 100) is listed as 0; in the assay on nightshade (setting [1]), 0. Besides, the “Plant response rating, Bromegrass, Downy” value is given as 0 in the assay on bromegrass, downy (setting [3]); 0 in the assay on bromegrass, downy (setting [4]); 5 with bromegrass, downy (setting [5]); 0 in the assay with bromegrass, downy (setting [6]); 0 in the assay on bromegrass, downy (setting [7]). Moreover, the “Bromegrass, Downy plant response rating” value in the assay on bromegrass, downy (setting [9]) amounted to 0. Moreover, the “Plant response rating, Cupgrass, Woolly” value in the assay on cupgrass, woolly (setting [3]) stood at 0; with cupgrass, woolly (setting [4]) it was 0; in the assay with cupgrass, woolly (setting [5]), 5; with cupgrass, woolly (setting [6]) it was 75; in the assay with cupgrass, woolly (setting [7]), 75. Also, in the assay on cupgrass, woolly (setting [9]), the “Cupgrass, Woolly plant response rating” value came to 55.
Turning to `O=C1NCC(c2cccc(OC(F)(F)F)c2)C1C(=O)Nc1ccccc1F` (stereo not drawn) [Compound 69], the “Nightshade plant response rating” value in the assay with nightshade (31 g ai/ha, scale 0 to 100, 0 is no effect and 100 is complete control) worked out at 0. For the same compound, the “Plant response rating, Nightshade” value in the assay with nightshade (62 g ai/ha, scale 0 to 100) came to 0; in the assay with nightshade (setting [1]) it was 0. Besides, in the assay with nightshade (250 g ai/ha), the “Plant response rating (scale of 0 to 100), Nightshade” value is listed as 0. Besides, the “Bromegrass, Downy plant response rating” value with bromegrass, downy (setting [10]) is 0. Further, the “Plant response rating, Bromegrass, Downy” value with bromegrass, downy (setting [6]) is recorded as 0; in the assay on bromegrass, downy (setting [7]), 0. Also, the “Plant response rating (scale of 0 to 100), Bromegrass, Downy” value in the assay on bromegrass, downy (Preemergence, 250 g ai/ha) is given as 0. For the same compound, the “Cupgrass, Woolly plant response rating” value with cupgrass, woolly (setting [10]) was determined as 75. For the same compound, the “Plant response rating, Cupgrass, Woolly” value in the assay on cupgrass, woolly (setting [6]) is on record as 85; with cupgrass, woolly (setting [7]) it was 85. In addition, in the assay with cupgrass, woolly (Preemergence, 250 g ai/ha), the “Plant response rating (scale of 0 to 100), Cupgrass, Woolly” value is given as 90.
